One series concerns the target human A2a receptor (Homo sapiens, UniProt P29274). The series is described as follows: Adenosine antagonistic activity: radioligand binding with [3H]CGS 21680 (20 nM). On the procedure: (§1) The adenosine antagonistic activity [Ki(nM)] of the test compound was examined by radioligand binding techniques using 8-cyclopentyl-1,3-dipropylxanthine, [dipropyl-2,3-^3H (N)] ([^3H]DPCPX, 4.5 nM) for human A1 receptor and [^3H]CGS 21680 (20 nM) for human A2a receptor.

For the next series, the target named is T1, human A1 receptor (Homo sapiens, UniProt P30542).
T1 sequence (P30542 1-326): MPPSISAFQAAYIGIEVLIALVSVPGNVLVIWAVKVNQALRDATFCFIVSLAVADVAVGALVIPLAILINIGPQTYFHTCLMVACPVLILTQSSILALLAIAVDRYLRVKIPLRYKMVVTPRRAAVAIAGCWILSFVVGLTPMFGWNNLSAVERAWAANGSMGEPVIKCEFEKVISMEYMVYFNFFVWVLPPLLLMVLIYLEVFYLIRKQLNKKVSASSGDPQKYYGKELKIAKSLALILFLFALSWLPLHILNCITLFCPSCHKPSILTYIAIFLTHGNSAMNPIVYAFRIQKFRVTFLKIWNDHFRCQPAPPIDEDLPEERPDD
The series is described as follows: Adenosine antagonistic activity: radioligand binding with [3H]DPCPX (4.5 nM). How it is done: as §1

For another series, the system named is ddY mice. Nature of the series: Anticatalepsy activity in mouse (haloperidol-induced catalepsy, bar test). To be noted: test compound 3.2 mg/kg orally, ddY mice (n=7); haloperidol 0.32 mg/kg i.p. 30 min later; measured 30 min after injection. The class given is in vivo. How it is done:
The test compound (3.2 mg/kg) was administered orally with ddY mice (n=7). Then, haloperidol (0.32 mg/kg) was injected intraperitoneally 30 min. after the administration of the compound. Thirty min. After the injection, the cataleptic responses of mice were measured. The forelimbs of each mouse were placed on a 3 cm high, 3 mm wide horizontal bar, and the duration of cataleptic posture was measured for up to 30 sec.

One may read the Ki as a dissociation constant, usually derived from enzyme kinetics or from competition with a known ligand. For orientation: melting point means the temperature of the solid-liquid transition.

human A2a receptor, sequence (P29274 whole entry): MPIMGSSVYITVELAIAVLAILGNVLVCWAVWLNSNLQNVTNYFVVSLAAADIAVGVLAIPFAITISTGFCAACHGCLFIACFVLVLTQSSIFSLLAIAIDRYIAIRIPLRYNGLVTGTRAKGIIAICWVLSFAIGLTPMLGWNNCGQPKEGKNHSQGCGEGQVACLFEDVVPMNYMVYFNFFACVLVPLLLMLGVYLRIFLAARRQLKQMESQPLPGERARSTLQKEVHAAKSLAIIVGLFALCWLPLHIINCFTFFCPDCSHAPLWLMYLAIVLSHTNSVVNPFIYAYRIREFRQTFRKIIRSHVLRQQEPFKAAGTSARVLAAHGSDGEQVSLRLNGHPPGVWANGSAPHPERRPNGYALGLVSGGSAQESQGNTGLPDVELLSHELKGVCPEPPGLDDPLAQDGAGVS

Molecule `CC(C)n1nc(-c2cc(C#N)c(N)nc2-c2ccccc2)ccc1=O` [Example 3, 2-Amino-5-(1-isopropyl-6-oxo-1,6-dihydro-3-pyridazinyl)-6-phenylnicotinonitrile] had a melting point of 197 to 198 °C. On human A2a receptor, this molecule gave a Ki of 0.65 nM. Also, the affinity at human A1 receptor, expressed as Ki, was 0.56 nM. For the same molecule, the “Manifestation rate of catalepsy (number of mouse)” value (“Manifestation rate of catalepsy” for short) with ddY mice was 0/7.
For `CC(C)n1nc(-c2cc(-c3ccn[nH]3)cnc2-c2ccccc2)ccc1=O` [Example 24, 2-isopropyl-6-[2-phenyl-5-(pyrazol-5-yl)-3-pyridyl]-3(2H)-pyridazinone], in that order: 212 to 213 °C, 2.7 nM, 0.46 nM and 0/7.
For `CC(C)n1nc(-c2cc(NC(=O)c3ccccc3)cnc2-c2ccccc2)ccc1=O` [Example 27, N-[5-(1-isopropyl-6-oxo-1,6-dihydro-3-pyridazinyl)-6-phenyl-3-pyridyl]benzamide], in that order: 207 to 208 °C, 1.24 nM, 0.31 nM and 0/7.
In the case of `CC(C)n1nc(-c2cc(Cl)c(N)nc2-c2ccc(F)cc2)ccc1=O` [Example 74, 6-[6-Amino-5-chloro-2-(4-fluorophenyl)-3-pyridyl]-2-isopropyl-3(2H)-pyridazinone], the Ki at human A2a receptor came out at 1.28 nM; on human A1 receptor, 6.42 nM. Besides, the “Manifestation rate of catalepsy” value in the series on ddY mice is reported as 0/7.
As for `CC(C)n1cc(-c2cc(Cl)c(N)nc2-c2ccccc2)cc(Cl)c1=O` [Example 119, 6′-Amino-5,5′-dichloro-1-isopropyl-2′-phenyl-3,3′-bipyridin-6(1H)-one], the figures for the inhibitory constant (Ki) on human A2a receptor and at human A1 receptor were 2.06 nM and 1.99 nM, respectively. In addition, the “Manifestation rate of catalepsy” value with ddY mice was 0/7.
